Measurements: article PMC6934184, “Selective DNA-PKcs inhibition extends the therapeutic index of localized radiotherapy and chemotherapy” (The Journal of Clinical Investigation, 2019)

Molecular target: T1, PIK3C2A (PI3K-C2 alpha) (Homo sapiens, UniProt O00443)
T1 construct: purchased Thermo Fisher Scientific (Life Technologies) SelectScreen
Test: SelectScreen Adapta
Assay type: biochemical
Summary of the method: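 NU5455 was profiled across the SelectScreen Broad panel of kinase activity and binding assays. Z'LYTE reactions such as CSF1R ran at apparent Km ATP, while the Adapta CAMK1 assay used ATP listed as 10. Values are given as percent.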

T1 sequence (O00443 whole entry): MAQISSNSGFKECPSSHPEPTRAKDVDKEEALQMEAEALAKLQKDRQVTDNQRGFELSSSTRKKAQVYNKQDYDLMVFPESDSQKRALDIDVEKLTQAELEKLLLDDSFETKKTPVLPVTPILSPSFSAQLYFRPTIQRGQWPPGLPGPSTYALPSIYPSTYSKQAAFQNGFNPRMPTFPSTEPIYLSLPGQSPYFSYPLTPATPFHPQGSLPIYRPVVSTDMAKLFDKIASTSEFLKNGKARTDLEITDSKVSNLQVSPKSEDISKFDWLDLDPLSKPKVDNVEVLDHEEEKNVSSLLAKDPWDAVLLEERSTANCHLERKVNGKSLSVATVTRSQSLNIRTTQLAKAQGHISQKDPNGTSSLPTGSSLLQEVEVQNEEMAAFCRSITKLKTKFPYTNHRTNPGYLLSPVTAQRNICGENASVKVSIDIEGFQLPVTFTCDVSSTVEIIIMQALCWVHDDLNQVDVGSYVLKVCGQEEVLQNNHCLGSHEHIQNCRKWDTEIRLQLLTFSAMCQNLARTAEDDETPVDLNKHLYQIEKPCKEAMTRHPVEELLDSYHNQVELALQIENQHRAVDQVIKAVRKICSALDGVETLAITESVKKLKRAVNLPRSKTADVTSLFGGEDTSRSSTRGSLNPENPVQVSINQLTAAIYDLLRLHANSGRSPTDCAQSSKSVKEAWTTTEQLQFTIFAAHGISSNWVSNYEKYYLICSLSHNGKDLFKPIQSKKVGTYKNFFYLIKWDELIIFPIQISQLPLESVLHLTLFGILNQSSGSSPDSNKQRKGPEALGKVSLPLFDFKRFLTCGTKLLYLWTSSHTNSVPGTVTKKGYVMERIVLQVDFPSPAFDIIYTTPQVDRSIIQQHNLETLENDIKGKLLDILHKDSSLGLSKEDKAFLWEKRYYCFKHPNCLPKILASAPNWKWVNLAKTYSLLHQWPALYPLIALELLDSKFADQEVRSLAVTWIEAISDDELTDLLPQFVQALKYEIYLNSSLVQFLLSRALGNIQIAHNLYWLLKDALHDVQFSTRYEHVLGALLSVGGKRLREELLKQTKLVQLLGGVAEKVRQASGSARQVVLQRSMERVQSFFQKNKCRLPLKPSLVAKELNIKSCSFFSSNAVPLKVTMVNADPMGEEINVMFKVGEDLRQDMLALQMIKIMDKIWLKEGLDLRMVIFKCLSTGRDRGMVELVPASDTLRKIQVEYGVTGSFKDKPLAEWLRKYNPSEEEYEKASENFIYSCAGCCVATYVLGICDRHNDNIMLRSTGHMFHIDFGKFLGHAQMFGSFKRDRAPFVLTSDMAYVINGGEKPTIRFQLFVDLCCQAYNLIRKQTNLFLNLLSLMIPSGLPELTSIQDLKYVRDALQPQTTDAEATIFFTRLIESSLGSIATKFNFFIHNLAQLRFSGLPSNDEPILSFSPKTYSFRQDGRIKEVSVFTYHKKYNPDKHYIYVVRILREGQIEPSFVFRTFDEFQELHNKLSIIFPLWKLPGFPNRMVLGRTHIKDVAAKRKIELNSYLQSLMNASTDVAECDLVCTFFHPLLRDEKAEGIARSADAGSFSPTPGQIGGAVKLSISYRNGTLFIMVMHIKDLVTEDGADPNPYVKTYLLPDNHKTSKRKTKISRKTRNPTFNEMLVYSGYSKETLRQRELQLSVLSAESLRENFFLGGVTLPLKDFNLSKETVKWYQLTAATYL

## CN(C(=O)CN1CCOCC1)c1ccc2sc3c(-c4cccc5c(=O)cc(N6CC7CCC(C6)O7)oc45)cccc3c2c1 [NU5455]
  inhibition at 1 µM: 1.3%
